Laboratory results published in patent publication US20060057696A1, “Sugar chain synthases” (priority 2002, published 2006).

Experiments:
[1] = biological target: T1, PA-hST8Sia VI (human ST8Sia VI) (Homo sapiens, UniProt P61647, L267F); assay: Sialyltransferase activity of PA-hST8Sia VI toward acceptor substrates; type: biochemical; conditions: incorporation with Fetuin taken as 100, substrate 0.5 mg/ml glycolipids, 1 mg/ml glycoproteins, monosaccharides and oligosaccharides
T1 construct: amino acids 68-398 in the case of human ST8Sia VI; signal peptide of mouse immunoglobulin IgM (N); made in house; host or cells: COS-7 cells, transient expression of pcDSA-hST8Sia VI; protein recovered from medium on IgG-Sepharose
T1 sequence (P61647 68-398 L267F): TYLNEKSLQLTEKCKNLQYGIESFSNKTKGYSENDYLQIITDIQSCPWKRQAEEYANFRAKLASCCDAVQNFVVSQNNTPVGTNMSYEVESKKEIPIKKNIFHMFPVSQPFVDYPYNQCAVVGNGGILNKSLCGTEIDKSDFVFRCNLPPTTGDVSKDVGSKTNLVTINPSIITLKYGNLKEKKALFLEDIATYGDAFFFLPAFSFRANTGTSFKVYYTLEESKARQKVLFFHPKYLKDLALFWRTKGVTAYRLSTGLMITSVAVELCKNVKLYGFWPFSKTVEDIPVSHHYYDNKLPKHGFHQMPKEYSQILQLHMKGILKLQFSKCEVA
Method: (§1) Using each expression vector and lipofectamine (Invitrogen), transient expression was carried out in COS-7 cells (Kojima, N. et al. (1995) FEBS Lett. 360, 1-4). The proteins of the present invention secreted from the cells into which each expression vector had been introduced were named as PA-mST8Sia VI (mouse) and PA-hST8Sia VI (human). PA-mST8Sia VI and PA-hST8Sia VI were adsorbed to IgG-Sepharose (Amersham Pharmacia Biotech), and were then recovered from medium. Sialyltransferase activity was measured as follows according to the method of Lee et al. (Lee, Y.-C. et al. (1999) J. Biol. Chem. 274, 11958-11967). A reaction solution (10 μl) containing 50 mM MES buffer (pH 6.0), 1 mM MgCl2, 1 mM CaCl2, 0.5% Triton CF-54, 100 μM CMP-[^14C]-NeuAc, a glycoconjugate (which was added at 0.5 mg/ml in the case of glycolipids, and at 1 mg/ml in the case of glycoproteins or oligosaccharides), and a PA-mST8Sia VI or PA-hST8Sia VI suspension, was incubated at 37° C. for 3 to 20 hours. Thereafter, in the case of glycolipids, the reaction product was purified with a C-18 column (Sep-Pak Vac 100 mg; Waters) and the purified product was used as a sample, and in the case of oligosaccharides or glycoproteins, the reaction product was directly used as a sample. Thus, the obtained samples were subjected to analysis. In the case of oligosaccharides or glycolipids, the sample was spotted on a silica gel 60 HPTLC plate (Merck), and was then developed with a developing solvent consisting of ethanol:pyridine:n-butanol:water:acetic acid=100:10:10:30:3 (for oligosaccharides), a developing solvent consisting of 1-propanol:ammonia water:water=6:1:2.5 (for oligosaccharides), or a developing solvent consisting of chloroform:methanol: 0.02% CaCl2=55:45:10 (for glycolipids). In the case of glycoproteins, analysis was carried out by SDS-polyacrylamide gel electrophoresis. The obtained radioactivities were visualized with a BAS2000 radio image analyzer (Fuji Film) and then quantified.

[2] = biological target: T2, PA-mST8Sia VI (mouse ST8Sia VI) (Mus musculus, UniProt Q8K4T1); assay: Sialyltransferase activity of PA-mST8Sia VI toward acceptor substrates; type: biochemical; conditions: incorporation with Fetuin taken as 100, substrate 0.5 mg/ml glycolipids, 1 mg/ml glycoproteins, monosaccharides and oligosaccharides
T2 construct: amino acids 26-398 in the case of mouse ST8Sia VI; signal peptide of mouse immunoglobulin IgM (N); made in house; host or cells: COS-7 cells, transient expression of pcDSA-mST8Sia VI; protein recovered from medium on IgG-Sepharose
T2 sequence (Q8K4T1 26-398): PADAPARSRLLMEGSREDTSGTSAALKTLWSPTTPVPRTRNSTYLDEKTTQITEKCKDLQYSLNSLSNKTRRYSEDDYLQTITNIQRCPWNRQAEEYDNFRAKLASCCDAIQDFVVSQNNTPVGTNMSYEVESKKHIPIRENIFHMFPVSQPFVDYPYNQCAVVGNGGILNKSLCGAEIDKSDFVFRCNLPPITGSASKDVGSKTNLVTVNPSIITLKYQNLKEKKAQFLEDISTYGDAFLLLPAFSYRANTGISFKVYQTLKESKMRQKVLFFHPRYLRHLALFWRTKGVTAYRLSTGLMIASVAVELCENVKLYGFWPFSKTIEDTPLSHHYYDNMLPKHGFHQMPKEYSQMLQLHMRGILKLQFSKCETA
Method: as §1

Relative rate (%) Human ST8Sia VI [1] [%]	Relative rate (%) Mouse ST8SiaVI [2] [%]	Substance
0	0	NeuAcα2,8NeuAcα2,3Galβ1,4Glcβ1-Cer [GD3]
0	0	NeuAcα2,8NeuAcα2,8Galβ1,3GalNAcβ1,4(NeuAcα2,8NeuAcα2,3)Galβ1,4Glcβ1-Cer [GQ1b]
